In patent US20250353820A1, “ANTIVIRAL PYRAZOLOPYRIDINONE COMPOUNDS” (Novartis AG, priority 2019, published 2025):

biological target: human HSV DNA polymerase UL30 (Human herpesvirus 1 (strain 17) (HHV-1) (Human herpes simplex virus 1), UniProt P04293); assay: biochemical; settings: 625 pM HSV polymerase, 20 minutes at room temperature; read-out: HSV-polymerase Biochemical IC50

Structure (SMILES) | IC50 [nM]
Cn1nc(C(=O)NCc2ccc(C#N)cc2)c2c1C(=O)N(CC1(S(=O)(=O)C(C)(C)CN3CCOCC3)CC1)CC2 [Example 61, N-(4-Cyanobenzyl)-1-methyl-6-((1-((2-methyl-1-morpholinopropan-2-yl)sulfonyl)cyclopropyl)methyl)-7-oxo-4,5,6,7-tetrahydro-1H-pyrazolo[3,4-c]pyridine-3-carboxamide] | 75
CO[C@@H]1CCN(CC(C)(C)S(=O)(=O)C2(CN3CCc4c(C(=O)NCc5ccc(C#N)cc5)nn(C)c4C3=O)CC2)C1 [Example 62, (R)-N-(4-cyanobenzyl)-6-((1-((1-(3-methoxypyrrolidin-1-yl)-2-methylpropan-2-yl)sulfonyl)cyclopropyl)methyl)-1-methyl-7-oxo-4,5,6,7-tetrahydro-1H-pyrazolo[3,4-c]pyridine-3-carboxamide] | 139
Cn1nc(C(=O)NCc2ccc(C#N)cc2)c2c1C(=O)N(CC1(S(=O)(=O)C(C)(C)CN3CC4CC(C3)O4)CC1)CC2 [Example 63, 6-((1-((1-(6-Oxa-3-azabicyclo[3.1.1]heptan-3-yl)-2-methylpropan-2-yl)sulfonyl)cyclopropyl)methyl)-N-(4-cyanobenzyl)-1-methyl-7-oxo-4,5,6,7-tetrahydro-1H-pyrazolo[3,4-c]pyridine-3-carboxamide] | 100
Cn1nc(C(=O)NCc2ccc(C#N)cc2)c2c1C(=O)N(CC1(S(=O)(=O)C(C)(C)CN3CC4CC3CO4)CC1)CC2 (centres unmarked) [Example 64, 6-((1-((1-(2-Oxa-5-azabicyclo[2.2.1]heptan-5-yl)-2-methylpropan-2-yl)sulfonyl)cyclopropyl)methyl)-N-(4-cyanobenzyl)-1-methyl-7-oxo-4,5,6,7-tetrahydro-1H-pyrazolo[3,4-c]pyridine-3-carboxamide] | 60
Cn1nc(C(=O)NCc2ccc(C#N)cc2)c2c1C(=O)N(CC1(S(=O)(=O)C(C)(C)CN3CC(O)C3)CC1)CC2 [Example 65, N-(4-Cyanobenzyl)-6-((1-((1-(3-hydroxyazetidin-1-yl)-2-methylpropan-2-yl)sulfonyl)cyclopropyl)methyl)-1-methyl-7-oxo-4,5,6,7-tetrahydro-1H-pyrazolo[3,4-c]pyridine-3-carboxamide] | 52
COC1CN(CC(C)(C)S(=O)(=O)C2(CN3CCc4c(C(=O)NCc5ccc(C#N)cc5)nn(C)c4C3=O)CC2)C1 [Example 66, N-(4-Cyanobenzyl)-6-((1-((1-(3-methoxyazetidin-1-yl)-2-methylpropan-2-yl)sulfonyl)cyclopropyl)methyl)-1-methyl-7-oxo-4,5,6,7-tetrahydro-1H-pyrazolo[3,4-c]pyridine-3-carboxamide] | 50
Cn1nc(C(=O)NCc2ccc(C#N)cc2)c2c1C(=O)N(CC1(S(=O)(=O)C(C)(C)CN3CC4(COC4)C3)CC1)CC2 [Example 67, N-(4-Cyanobenzyl)-1-methyl-6-((1-((2-methyl-1-(2-oxa-6-azaspiro[3.3]heptan-6-yl)propan-2-yl)sulfonyl)cyclopropyl)methyl)-7-oxo-4,5,6,7-tetrahydro-1H-pyrazolo[3,4-c]pyridine-3-carboxamide] | 48
Cn1nc(C(=O)NCc2ccc(C#N)cc2)c2c1C(=O)N(CC1(S(=O)(=O)C(C)(C)CN3CCC(O)C3)CC1)CC2 (centres unmarked) [Example 68, N-(4-Cyanobenzyl)-6-((1-((1-(3-hydroxypyrrolidin-1-yl)-2-methylpropan-2-yl)sulfonyl)cyclopropyl)methyl)-1-methyl-7-oxo-4,5,6,7-tetrahydro-1H-pyrazolo[3,4-c]pyridine-3-carboxamide] | 21
Cn1nc(C(=O)NCc2ccc(C#N)cc2)c2c1C(=O)N(CC1(S(=O)(=O)C(C)(C)CNCCO)CC1)CC2 [Example 69, N-(4-Cyanobenzyl)-6-((1-((1-((2-hydroxyethyl)amino)-2-methylpropan-2-yl)sulfonyl)cyclopropyl)methyl)-1-methyl-7-oxo-4,5,6,7-tetrahydro-1H-pyrazolo[3,4-c]pyridine-3-carboxamide] | 40
Cn1nc(C(=O)NCc2ccc(C#N)cc2)c2c1C(=O)N(CC1(S(=O)(=O)C(C)(C)CN)CC1)CC2 [Example 70, 6-((1-((1-Amino-2-methylpropan-2-yl)sulfonyl)cyclopropyl)methyl)-N-(4-cyanobenzyl)-1-methyl-7-oxo-4,5,6,7-tetrahydro-1H-pyrazolo[3,4-c]pyridine-3-carboxamide] | 37
COC(=O)NCC(C)(C)S(=O)(=O)C1(CN2CCc3c(C(=O)NCc4ccc(C#N)cc4)nn(C)c3C2=O)CC1 [Example 73, Methyl (2-((1-((3-((4-cyanobenzyl)carbamoyl)-1-methyl-7-oxo-1,4,5,7-tetrahydro-6H-pyrazolo[3,4-c]pyridin-6-yl)methyl)cyclopropyl)sulfonyl)-2-methylpropyl)carbamate] | 40
Cn1nc(C(=O)NCc2ccc(C#N)cc2)c2c1C(=O)N(CC1(S(=O)(=O)C(C)(C)CNC(=O)CN)CC1)CC2 [Example 74, 6-((1-((1-(2-Aminoacetamido)-2-methylpropan-2-yl)sulfonyl)cyclopropyl)methyl)-N-(4-cyanobenzyl)-1-methyl-7-oxo-4,5,6,7-tetrahydro-1H-pyrazolo[3,4-c]pyridine-3-carboxamide] | 65
C[C@@H](N)C(=O)NCC(C)(C)S(=O)(=O)C1(CN2CCc3c(C(=O)NCc4ccc(C#N)cc4)nn(C)c3C2=O)CC1 [Example 75, (R)-6-((1-((1-(2-Aminopropanamido)-2-methylpropan-2-yl)sulfonyl)cyclopropyl)methyl)-N-(4-cyanobenzyl)-1-methyl-7-oxo-4,5,6,7-tetrahydro-1H-pyrazolo[3,4-c]pyridine-3-carboxamide] | 133
C[C@H](N)C(=O)NCC(C)(C)S(=O)(=O)C1(CN2CCc3c(C(=O)NCc4ccc(C#N)cc4)nn(C)c3C2=O)CC1 [Example 76, (S)-6-((1-((1-(2-Aminopropanamido)-2-methylpropan-2-yl)sulfonyl)cyclopropyl)methyl)-N-(4-cyanobenzyl)-1-methyl-7-oxo-4,5,6,7-tetrahydro-1H-pyrazolo[3,4-c]pyridine-3-carboxamide] | 123
Cn1nc(C(=O)NCc2ccc(C#N)cc2)c2c1C(=O)N(CC1(S(=O)(=O)C(C)(C)CNC(=O)C(C)(C)N)CC1)CC2 [Example 77, 6-((1-((1-(2-Amino-2-methylpropanamido)-2-methylpropan-2-yl)sulfonyl)cyclopropyl)methyl)-N-(4-cyanobenzyl)-1-methyl-7-oxo-4,5,6,7-tetrahydro-1H-pyrazolo[3,4-c]pyridine-3-carboxamide] | 142
CN(C)CC(=O)NCC(C)(C)S(=O)(=O)C1(CN2CCc3c(C(=O)NCc4ccc(C#N)cc4)nn(C)c3C2=O)CC1 [Example 78, N-(4-Cyanobenzyl)-6-((1-((1-(2-(dimethylamino)acetamido)-2-methylpropan-2-yl)sulfonyl)cyclopropyl)methyl)-1-methyl-7-oxo-4,5,6,7-tetrahydro-1H-pyrazolo[3,4-c]pyridine-3-carboxamide] | 206
Cn1nc(C(=O)NCc2ccc(C#N)cc2)c2c1C(=O)N(CC1(S(=O)(=O)C(C)(C)COC(F)(F)CO)CC1)CC2 [Example 84, N-(4-Cyanobenzyl)-6-((1-((1-(1,1-difluoro-2-hydroxyethoxy)-2-methylpropan-2-yl)sulfonyl)cyclopropyl)methyl)-1-methyl-7-oxo-4,5,6,7-tetrahydro-1H-pyrazolo[3,4-c]pyridine-3-carboxamide] | 45
